Values after ≈ are worked out from the molar mass of the structure shown. Read-outs that look alike come from different tables or passages of the source.
What was measured:
[1] = test system: Mycobacterium tuberculosis H37Rv; assay: Resazurin Microplate Assay (REMA), anti-tubercular activity, H37Rv strain; type: cell-based; details: 192 h, read-out: Anti-tubercular activity against Mycobacterium tuberculosis, H37Rv (minimum inhibitory concentration, MIC)
[2] = H37Rv strain, ATCC: 25177, REMA, 8 days incubation at 37° C.

| SMILES | melting point [°C] | MIC [1, 2] [µg/mL] | MIC ([1]; H37RV) [µg/mL] |
| --- | --- | --- | --- |
| CN1/C(=C\c2ccc([N+](=O)[O-])cc2)C(=O)N/C1=N\C(=O)Nc1ccccc1F | 150 to 152 |  |  |
| Cc1ccc(/C=C2/C(=O)N/C(=N\C(=O)Nc3ccccc3F)N2C)o1 | 196 to 198 |  |  |
| CN1/C(=C\c2ccc([N+](=O)[O-])cc2)C(=O)N/C1=N\C(=O)Nc1cccc(F)c1 | 144 to 146 |  |  |
| Cc1ccc(/C=C2/C(=O)N/C(=N\C(=O)Nc3cccc(F)c3)N2C)o1 | 188 to 190 |  |  |
| CN1/C(=C\c2ccc([N+](=O)[O-])cc2)C(=O)N/C1=N\C(=O)Nc1ccc(F)cc1 | 156 to 158 |  |  |
| Cc1ccc(/C=C2/C(=O)N/C(=N\C(=O)Nc3ccc(F)cc3)N2C)o1 | 186 to 188 |  |  |
| CN1/C(=C\c2ccc(Br)o2)C(=O)N/C1=N\C(=O)Nc1ccc(Cl)cc1Cl | 198 to 200 |  |  |
| CN1/C(=C\c2ccc(-c3ccccc3[N+](=O)[O-])o2)C(=O)N/C1=N\C(=O)Nc1ccc(Cl)cc1Cl | 206 to 208 |  |  |
| Cc1ccc(/C=C2/C(=O)N/C(=N\C(=S)Nc3cccc(Cl)c3)N2C)o1 | 158 to 160 |  |  |
| CN1/C(=C\c2ccc(Br)o2)C(=O)N/C1=N\C(=S)Nc1cccc(Cl)c1 | 140 to 142 |  |  |
| Cc1ccc(/C=C2/C(=O)N/C(=N\C(=S)Nc3ccc(F)cc3)N2C)o1 | 146 to 148 |  |  |
| CN1C(=Cc2ccc([N+](=O)[O-])cc2)C(=O)N/C1=N\C(=S)Nc1cccc(Cl)c1 (stereo in doubt) [Compound 4q, 1-(3-Chlorophenyl)-3-[(2E,5Z)-1-methyl-5-(4-nitrobenzylidene)-4-oxoimidazolidin-2-ylidene]thiourea] | 166 to 168 | 8 (≈ 19.2 µM) |  |
| CN1C(=Cc2ccc(-c3ccccc3[N+](=O)[O-])o2)C(=O)N/C1=N\C(=S)Nc1ccc(F)cc1 (stereo in doubt) [Compound 4v, 1-(4-Fluorophenyl)-3-[(2E,5Z)-1-methyl-5-{[5-(2-nitrophenyl)furan-2-yl]methylidene}-4-oxoimidazolidin-2-ylidene]thiourea] | 158 to 160 | 16 (≈ 34.4 µM) |  |
| CN1/C(=C\c2ccc(Br)o2)C(=O)N/C1=N\C(=O)Nc1cccc(F)c1 [Compound 4g, 1-{(2E,5Z)-5-[(5-Bromofuran-2-yl)methylidene]-1-methyl-4-oxoimidazolidin-2-ylidene}-3-(3-fluorophenyl)urea] | 196 to 198 |  | 8 (≈ 19.6 µM) |

Reference: US11981643B1, “Oxoimidazolidine derivatives as anti-tubercular agents” (priority 2023, dated 2024)
